Experimental findings from EP1452605A1, “Method for determining antiviral activity” (Universiteit Utrecht Holding B.V., priority 2003, dated 2004) are described below.

One series concerns 4602. The experiment in a line: Drug susceptibility assay (cell-killing MTT assay) in MT-2 cells. Particulars: Human immunodeficiency virus 1, MT2, 120 h.
The next series relates to HIV-1HXB2. The experiment in a line: HIV-1 infection of PBMC, p24-core antigen ELISA. The class given is cell-based. Particulars: Human immunodeficiency virus 1, 168 h; PBMC infected with HIV-1HXB2, p24 antigen after 7 days. How it is done: (§1) To correct for the input virus, an extra control consisting of medium containing the same amount of input virus as added to the cells was included in the experiment. The amount of p24 in this control was subsequently subtracted from the p24 values of the samples in order to obtain the exact amount of p24 produced by the cells. p24-core antigen quantification by ELISA After 2 or 7 days incubation, samples of the supernatants were collected, inactivated by addition of Empigen (Calbiochem, La Jolla, CA, USA) and by heat inactivation at 56°C for 30 min. p24-core antigen concentration was determined by an enzyme linked immunoabsorbent assay (ELISA) (AMPAK™, DAKO, Cambridgeshire, UK) as described previously ^18,19. The optical density values were converted into p24 concentration (ng/ml) with the use of a calibration curve made by serial dilutions of recombinant p24 protein (NIBSC, UK) that was submitted to the same treatment as the samples.

Another series deals with HIV-1AT. Put plainly: HIV-1 infection of PBMC, p24-core antigen ELISA. As to conditions: Human immunodeficiency virus 1, 168 h; PBMC infected with HIV-1AT, p24 antigen after 7 days. The class given is cell-based. How it is done: as §1
A further series relates to HIV-1Ba-L. The experiment in a line: HIV-1 infection of PBMC, p24-core antigen ELISA. Format: cell-based. As for the experimental part:
as §1
(§2) To correct for the input virus, an extra control consisting of medium containing the same amount of input virus as added to the cells was included in the experiment. The amount of p24 in this control was subsequently subtracted from the p24 values of the samples in order to obtain the exact amount of p24 produced by the cells.
After 7 days incubation, samples of the supernatants were collected, inactivated by addition of Empigen (Calbiochem, La Jolla, CA, USA) and by heat inactivation at 56°C for 30 min. p24-core antigen concentration was determined by an ELISA (AMPAK™, DAKO, Cambridgeshire, UK) as described previously ^39,40. The optical density values were converted into p24 concentration (ng/ml) with the use of a calibration curve made by serial dilutions of recombinant p24 protein (NIBSC, UK) that was submitted to the same treatment as the samples.
as §2
After 7 days incubation, samples of the supernatants were collected, inactivated by addition of Empigen (Calbiochem, La Jolla, CA, USA) and by heat inactivation at 56°C for 30 min. p24-core antigen concentration was determined by an enzyme linked immunoabsorbent assay (ELISA) (AMPAK™, DAKO, Cambridgeshire, UK) as described previously 15,16. The optical density values were converted into p24 concentration (ng/ml) with the use of a calibration curve made by serial dilutions of recombinant p24 protein (NIBSC, UK) that was submitted to the same treatment as the samples.

Another series has as its target HIV-1 RT (Human immunodeficiency virus type 1 group M subtype B, UniProt P04585). The experiment in a line: Cell-free RT assay (primer extension). Format: biochemical. As for the experimental part:
The HIV-1 RNA template (positions +1 to +368, with +1 being the capped G residue) was synthesized in vitro with T7 RNA polymerase as described previously ^27. In the reverse transcription assay, 10 ng of the RNA template was incubated with 1.5 µg calf liver tRNA ([…] total tRNA, of which approximately 1.2 pmol tRNA^lys3, Boehringer) or 20 ng of a DNA primer complementary to the primer binding site (PBS) (positions +182 to +202) in 12 µl annealing buffer (83 mM Tris-HCl pH 7.5, 125 mM KCl) at 85 °C for 2 min and 65 °C for 10 min, followed by cooling to room temperature over a 1h period. Reverse transcription was initiated by the addition of 6 µl RT buffer (9 mM MgCl2, 30 mM DTT, 150 µg/ml actinomycine D, 30 µM dATP, dGTP and dTTP and 1.5 µM dCTP), 0.5 µl [α-^32P]dCTP and 0.5 U HIV-1 RT (MRC) in the presence or absence of APHS (10, 30, 300 and 1000 µM) or 10% ethanol. The reaction was incubated for 30 min at 37 °C. The cDNA product was precipitated in 0.3 M sodiumacetate, pH 5.2 and 80% ethanol at-20°C, dissolved in formamide loading buffer and analyzed on a denaturing 6% polyacrylamide-urea sequencing gel.

Series [1] is described as follows: Cellular viability assay (MTT) of HFF overlayed with BHK cells. Format: cell-based, Human. Particulars: hff and bhk cells; read-out: TC50 (the source's name).
In another series the test system is HFF and BHK cells. Described as above. The class given is cell-based, Human.
The subject of the next series is CrFK cells. The experiment in a line: Cellular viability assay (MTT) of CrFK cells. The class given is cell-based, feline.
The nature of series [2]: Cellular viability assay (MTT) of MDM. As to conditions: human, 7 days, read-out: TC50. Format: cell-based.

Description for 4602: The cells were maintained at 37°C, 5% CO2. One day prior to the experiments, the cells were passaged 1:1 in a concentration of 1 × 10^6 cells/ml.
The genes that contain the drug resistance mutations are excised from the clinical isolates and cloned into the genetic background of HXB2. Thus all tested HIV-1 strains have the same genetic background. […] This strain contains an insertion of two a.a. between codons 68 and 69 of RT as well as an a.a. change at codon 67.
After 5 days of incubation a cellular viability assay was performed as described above. In this case, the amount of formazan reflects the number of cells protected by the drug against killing by the virus and is used as a read out for drug susceptibility.

For `CCCCC#CCSc1ccccc1OC(C)=O` [APHS, o-(acetoxyphenyl)hept-2-ynyl sulfide], the IC50 in the series with 4602 worked out at 5 µM; with HIV-1HXB2, 11 µM; with HIV-1AT, 7 µM; in the series on HIV-1Ba-L (Human immunodeficiency virus 1, 168 h, PBMC infected with HIV-1Ba-L, p24 antigen after 7 days, read-out: IC50), 6 µM. In addition, the inhibition at 30 µM with HIV-1Ba-L (Human immunodeficiency virus 1, 30 µM APHS, PBMC, read-out: inhibit HIV-1Ba-L replication) amounted to 80%. In addition, the “RT activity in the primer extension assay” value on HIV-1 RT is on record as “no inhibition of RT activity”. Also, the “amount of reverse transcription product” value at HIV-1 RT (1000 µM APHS, effect probably due to the ethanol in the sample) was “decreased the amount of reverse transcription product”. Besides, on HIV-1 RT (APHS 10 to 300 µM), the “cDNA formation” value was “did not affect cDNA formation”. For the same compound, the CC50 in series [1] came out at 374 µM. In addition, the “cytotoxicity for HFF and BHK cells” value in the series on HFF and BHK cells is listed as “not cytotoxic”. The “cytotoxicity for CrFK cells” value in the series with CrFK cells was “not cytotoxic”. Moreover, the CC50 at 168 h in series [2] stood at 235 µM.
